From US8273749B2, “N-substituted oxindoline derivatives as calcium channel blockers” (Merck Sharp & Dohme Corp., priority 2007, dated 2012)

What follows are compounds tested against T1, N-type calcium channel (Cav2.2) (Homo sapiens, UniProt Q00975) (assay: Cav2.2 (N-type) calcium channel block: fluorescent potassium-depolarization assay and IonWorks / PatchXpress / manual patch clamp electrophysiology). Conditions: aforementioned assays (Assay Examples 1-3); which assay or condition is not specified; read-out: IC50 in antagonizing the N-type calcium channel.
T1 construct: expressed in transfected cells
T1 sequence (Q00975 whole entry): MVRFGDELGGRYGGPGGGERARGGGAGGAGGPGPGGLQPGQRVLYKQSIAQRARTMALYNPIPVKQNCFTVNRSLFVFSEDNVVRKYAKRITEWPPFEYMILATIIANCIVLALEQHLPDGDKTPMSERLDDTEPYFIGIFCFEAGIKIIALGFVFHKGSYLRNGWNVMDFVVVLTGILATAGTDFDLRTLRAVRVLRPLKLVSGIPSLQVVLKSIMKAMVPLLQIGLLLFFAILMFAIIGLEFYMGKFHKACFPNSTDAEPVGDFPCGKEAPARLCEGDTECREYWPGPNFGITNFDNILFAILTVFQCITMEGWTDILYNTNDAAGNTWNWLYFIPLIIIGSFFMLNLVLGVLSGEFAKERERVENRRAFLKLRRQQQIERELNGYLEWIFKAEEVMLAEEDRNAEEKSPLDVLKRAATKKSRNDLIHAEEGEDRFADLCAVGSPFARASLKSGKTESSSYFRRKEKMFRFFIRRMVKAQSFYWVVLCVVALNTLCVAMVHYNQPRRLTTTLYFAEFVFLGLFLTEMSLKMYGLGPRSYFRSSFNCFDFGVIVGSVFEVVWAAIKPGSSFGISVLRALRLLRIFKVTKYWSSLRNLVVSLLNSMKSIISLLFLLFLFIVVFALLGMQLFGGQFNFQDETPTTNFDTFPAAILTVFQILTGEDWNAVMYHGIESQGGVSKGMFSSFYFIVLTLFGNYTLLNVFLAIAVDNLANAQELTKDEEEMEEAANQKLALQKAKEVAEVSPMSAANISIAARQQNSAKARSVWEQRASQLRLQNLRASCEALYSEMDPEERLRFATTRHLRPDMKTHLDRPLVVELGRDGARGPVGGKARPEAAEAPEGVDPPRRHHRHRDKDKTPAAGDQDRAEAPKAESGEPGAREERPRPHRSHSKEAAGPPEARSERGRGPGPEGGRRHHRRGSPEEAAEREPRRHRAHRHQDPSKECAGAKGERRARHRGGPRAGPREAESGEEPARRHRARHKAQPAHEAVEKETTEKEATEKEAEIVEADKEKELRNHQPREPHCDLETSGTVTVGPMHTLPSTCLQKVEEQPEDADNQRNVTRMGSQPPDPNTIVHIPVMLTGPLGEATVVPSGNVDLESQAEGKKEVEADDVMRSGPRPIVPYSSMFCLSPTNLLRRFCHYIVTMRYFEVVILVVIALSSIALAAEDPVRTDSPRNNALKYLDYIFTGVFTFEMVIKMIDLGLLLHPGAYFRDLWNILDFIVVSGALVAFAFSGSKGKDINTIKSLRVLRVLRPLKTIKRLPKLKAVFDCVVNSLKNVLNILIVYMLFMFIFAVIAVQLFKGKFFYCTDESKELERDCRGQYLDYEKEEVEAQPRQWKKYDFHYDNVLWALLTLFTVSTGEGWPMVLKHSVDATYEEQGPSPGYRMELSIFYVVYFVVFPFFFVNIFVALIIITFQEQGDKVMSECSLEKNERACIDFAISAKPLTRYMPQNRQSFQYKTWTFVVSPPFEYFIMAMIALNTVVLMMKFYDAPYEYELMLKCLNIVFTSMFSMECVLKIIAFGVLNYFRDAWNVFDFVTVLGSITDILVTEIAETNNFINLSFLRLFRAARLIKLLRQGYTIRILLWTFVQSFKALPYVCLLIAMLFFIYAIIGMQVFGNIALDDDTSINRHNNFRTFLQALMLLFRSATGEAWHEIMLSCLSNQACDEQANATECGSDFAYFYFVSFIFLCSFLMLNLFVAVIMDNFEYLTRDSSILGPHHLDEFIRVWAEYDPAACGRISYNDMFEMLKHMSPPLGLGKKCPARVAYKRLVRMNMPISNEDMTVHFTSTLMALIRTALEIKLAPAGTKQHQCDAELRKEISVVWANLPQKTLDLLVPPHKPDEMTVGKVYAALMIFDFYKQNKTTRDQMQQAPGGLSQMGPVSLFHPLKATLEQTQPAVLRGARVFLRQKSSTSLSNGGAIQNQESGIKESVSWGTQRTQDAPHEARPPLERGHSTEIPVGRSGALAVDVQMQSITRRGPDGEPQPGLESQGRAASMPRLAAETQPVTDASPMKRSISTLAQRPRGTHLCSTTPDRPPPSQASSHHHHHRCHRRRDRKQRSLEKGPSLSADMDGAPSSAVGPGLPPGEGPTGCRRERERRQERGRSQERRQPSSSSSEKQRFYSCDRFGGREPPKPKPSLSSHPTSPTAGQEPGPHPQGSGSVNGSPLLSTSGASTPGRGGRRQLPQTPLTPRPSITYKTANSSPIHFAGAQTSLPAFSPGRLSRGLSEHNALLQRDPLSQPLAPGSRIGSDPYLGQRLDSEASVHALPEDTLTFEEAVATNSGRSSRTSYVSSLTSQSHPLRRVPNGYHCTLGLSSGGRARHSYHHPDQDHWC
Type: cell-based
Description: Human Cav2.2 channels were stably expressed in HEK293 cells along with alpha2-delta and beta subunits of voltage-gated calcium channels. An inwardly rectifying potassium channel (Kir2.3) was also expressed in these cells to allow more precise control of the cell membrane potential by extracellular potassium concentration. At low bath potassium concentration, the membrane potential is relatively negative, and is depolarized as the bath potassium concentration is raised. In this way, the bath potassium concentration can be used to regulate the voltage-dependent conformations of the channels. Compounds are incubated with cells in the presence of low (4 mM) potassium or elevated (12, 25 or 30 mM) potassium to determine the affinity for compound block of resting (closed) channels at 4 mM potassium or affinity for block of open and inactivated channels at 12, 25 or 30 mM potassium. After the incubation period, Cav2.2 channel opening is triggered by addition of higher concentration of potassium (70 mM final concentration) to further depolarize the cell. The degree of state-dependent block can be estimated from the inhibitory potency of compounds after incubation in different potassium concentrations.
Calcium influx through Cav2.2 channels is determined using a calcium-sensitive fluorescent dye in combination with a fluorescent plate reader. Fluorescent changes were measured with either a VIPR (Aurora Instruments) or FLIPR (Molecular Devices) plate reader.
• 1. Seed cells in Poly-D-Lysine Coated 96- or 384-well plate and keep in a 37° C.-10% CO2 incubator overnight • 2. […] Read cell plate on VIPR instrument, Excitation=480 nm, Emission=535 nm • 9. With VIPR continuously reading, add 0.1 mL (96-well plate) or 0.03 mL (384-well plate) of Depolarization Buffer, which is 2× the final assay concentration, to the cell plate. […]
Block of N-type calcium channels is evaluated utilizing the IonWorks HT 384 well automated patch clamp electrophysiology device. […]
Work on `CC1(Cc2cncnc2)C(=O)N(c2nc[nH]n2)c2ccc(-c3ccc(F)c(Cl)c3)cc21` (stereo not drawn) [Example 2, 5-(3-chloro-4-fluorophenyl)-3-methyl-3-(pyrimidin-5-ylmethyl)-1-(1H-1,2,4-triazol-3-yl)-1,3-dihydro-2H-indol-2-one] yielded an IC50 of 230 nM. For `Cn1cnc(N2C(=O)C(C)(Cc3cncnc3)c3cc(-c4cccc(OC(F)(F)F)c4)ccc32)c1` (stereo not drawn) [Example 18, 3-methyl-1-(1-methyl-1H-imidazol-4-yl)-3-pyrimidin-5-ylmethyl-5-(3-trifluoromethoxy-phenyl)-1,3-dihydro-indol-2-one], the IC50 was 260 nM. In the case of `CC1(Cc2cncnc2)C(=O)N(c2cnc(N)cn2)c2ccc(-c3ccc(F)c(Cl)c3)cc21` (stereo not drawn) [Example 10, 1-(5-aminopyrazin-2-yl)-5-(3-chloro-4-fluorophenyl)-3-methyl-3-(pyrimidin-5-ylmethyl)-1,3-dihydro-2H-indol-2-one], the IC50 is reported as 520 nM.
